Laboratory results reported in patent publication EP1480941B1, “UREA DERIVATIVES AS HIV ASPARTYL PROTEASE INHIBITORS” (priority 2002, dated 2003).
Like-named read-outs stand apart in the source and are kept apart here.

Target: HIV protease (Human immunodeficiency virus type 1 group M subtype B, UniProt P04585)
Test: Enzymatic (fluorometric FRET) assay for determining the inhibition constant (Ki)
Type: biochemical
Details: EDANS/DABCYL substrate, equation of Henderson
Source text: Enzymatic assay for determining the inhibition constant (Ki) of synthetic compounds targeting the HIV protease
This is a fluorometric assay based on the cleavage by protease of a substrate carrying a donor group (EDANS) and an acceptor group (DABCYL) on each side of the cleavage site, interacting together through fluorescence resonance energy transfer (FRET) as described by Matayoshi et al. (Science 247:[…], 1990).
After calculation of Vo and Vi, the inhibition constant (Ki) of the compound is determined using the equation of Henderson: (Vo)/(Vi) = 1 + ([I])/(Kiapp) Where Ki = (Kiapp)/((1 + [S])/(Km)) [formula] where Vo = the enzyme's initial velocity Vi = the enzyme velocity in the presence of the inhibitory compound, [I] = inhibitor concentration, [S] = substrate concentration, Km = Michaelis-Menten constant and Kiapp = apparent Ki
Graphs are traced and the Ki determined using GraphPad Prism software v. 3.0.

SMILES | Ki (read-out: Ki) | also measured
Cc1ccc(S(=O)(=O)N(CC(C)C)C(CCCCNC(=N)NCc2ccccc2)C(=O)O)cc1 (racemic) [Example 30, Nα-isobutyl-Nα-(4-methylbenzenesulfonyl)-Nω-benzyl-DL-homoarginine] | > 300 nM | 
Cc1ccc(S(=O)(=O)N(CC(C)C)[C@@H](CCCCNC(=O)NCCc2ccccc2)C(=O)O)cc1 [Example 1, Nα-isobutyl-Nα-(4-methylbenzenesulfonyl)-Nε-(2'-phenethylaminocarbonyl)-L-lysine] |  | Ki (Ki): 204 nM
Cc1ccc(S(=O)(=O)N(CC(C)C)[C@@H](CCCCNC(=O)NCc2ccccn2)C(=O)O)cc1 [Example 3, Nα-isobutyl-Nα-(4-methylbenzenesulfonyl)-N∈-[N'-(2-picolyl)aminocarbonyl]-L-lysine] | > 300 nM | 
Cc1ccc(S(=O)(=O)N(CC(C)C)[C@@H](CCCCNC(=O)NCCc2ccc(O)cc2)C(=O)O)cc1 [Example 5, Nα-isobutyl-Nα-(4-methylbenzenesulfonyl)-N∈-[2'-(4-hydroxyphenethyl)aminocarbonyl]-L-lysine] | > 300 nM | 
Cc1ccc(S(=O)(=O)N(CC(C)C)[C@@H](CCCCNC(=O)N(CC(C)C)C2CCCCC2)C(=O)O)cc1 [Example 7, Nα-isobutyl-Nα-(4-methylbenzenesulfonyl)-N∈-[(N'-cyclohexyl-N'-isobutyl)aminocarbonyl]-L-lysine] | > 300 nM | 
Cc1ccc(S(=O)(=O)N(CC(C)C)[C@@H](CCCCNC(=O)N[C@@H](Cc2ccccc2)C(N)=O)C(=O)O)cc1 [Example 8, Nα-isobutyl-Nα-(4-methylbenzenesulfonyl)-N∈-[L-phenylalanylamide-N'a-carbonyl]-L-lysine] |  | Ki (Ki): 60 nM
Cc1ccc(S(=O)(=O)N(CC(C)C)[C@@H](CCCCNC(=O)N[C@H](Cc2ccccc2)C(N)=O)C(=O)O)cc1 [Example 9, Nα-isobutyl-Nα-(4-methylbenzenesulfonyl)-N∈-[D-phenylalanylamide-N'α-carbonyl]-L-lysine] |  | Ki (Ki): 131 nM
Cc1ccc(S(=O)(=O)N(CC(C)C)[C@@H](CCCCNC(=O)NNC(=O)c2ccccc2O)C(=O)O)cc1 [Example 10, Nα-isobutyl-Nα-(4-methylbenzenesulfonyl)-N∈-[N2-(2-hydroxybenzoyl)-hydrazino-N1-carbonyl]-L-lysine] |  | Ki (Ki): 55 nM
Cc1ccc(S(=O)(=O)N(CC(C)C)[C@@H](CCCCNC(=O)NNC(=O)c2ccncc2)C(=O)O)cc1 [Example 11, Nα-isobutyl-Nα-(4-methylbenzenesulfonyl)-N∈-[N2-(pyridine-4-carbonyl)-hydrazino-N1-carbonyl]-L-lysine] |  | Ki (Ki): > 300 nM
Cc1ccc(S(=O)(=O)N(CC(C)C)[C@@H](CCCCNC(=O)N[C@@H](Cc2ccccc2)C(=O)NCC(C)C)C(=O)O)cc1 [Example 12, Nα-isobutyl-Nα-(4-methylbenzenesulfonyl)-N∈-(L-phenylalanyl-N'-isobutylamide-N'α-carbonyl)-L-lysine] |  | Ki (Ki): 47 nM
Cc1ccc(S(=O)(=O)N(CC(C)C)[C@@H](CCCCNC(=O)N[C@@H](Cc2ccccc2)C(=O)Nc2ccccc2)C(=O)O)cc1 [Example 13, Nα-isobutyl-Nα-(4-methylbenzenesulfonyl)-N∈-(L-phenylalanyl-N'-phenylamide-N'α-carbonyl)-L-lysine] |  | Ki (Ki): 60 nM
Cc1ccc(S(=O)(=O)N(CC(C)C)C(CCCCNC(=S)NC2CCc3ccccc32)C(=O)O)cc1 [Example 14, (1S,TRS) Nα-isobutyl-Nα-(4-methylbenzenesulfonyl)-N∈-(indanyl-1'-aminothiocarbonyl)-S-lysine] | > 300 nM | 
Cc1ccc(S(=O)(=O)N(CC(C)C)[C@@H](CCCCNC(=O)NCCN2CCCCC2)C(=O)O)cc1 [Example 17, Nα-isobutyl-Nα-(4-methylbenzenesulfonyl)-N∈-[2'-(1-pyperidinyl)ethylaminocarbonyl]-L-lysine] | > 300 nM | 
COC(=O)[C@H](CCCCNC(=O)NCCc1ccccn1)N(CC(C)C)S(=O)(=O)c1ccc(C)cc1 [Example 19, Nα-isobutyl-Nα-(4-methylbenzenesulfonyl)-N∈-[(2'-pyridyl)ethylaminocarbonyl]-L-lysine methyl ester] |  | Ki (Ki): > 300 nM
Cc1ccc(S(=O)(=O)N(CC(C)C)[C@@H](CCCCNC(=O)Nc2nccc3ccccc23)C(=O)O)cc1 [Example 20, Nα-isobutyl-Nα-(4-methylbenzenesulfonyl)-N∈-(1'-isoquinolylaminocarbonyl)-L-lysine] | > 300 nM | 
Cc1ccc(S(=O)(=O)N(CC(C)C)[C@@H](CCCCNC(=O)N[C@@H]2c3ccccc3C[C@@H]2O)C(=O)O)cc1 [Example 22, (1S,1'R,2'S) Nα-isobutyl-Nα-(4-methylbenzenesulfonyl)-N∈-(cis-2'-hydroxyindanyl-1'-aminocarbonyl)-S-lysine] | > 300 nM | 

SMILES | Ki (read-out: Ki) | also measured
Cc1ccc(S(=O)(=O)N(CC(C)C)[C@@H](CCCCNC(=O)N[C@H]2c3ccccc3C[C@H]2O)C(=O)O)cc1 [Example 23, (1S,1'S,2'R) Nα-isobutyl-Nα-(4-methylbenzenesulfonyl)-N∈-(cis-2'-hydroxyindanyl-1'-aminocarbonyl)-S-lysine] | > 300 nM | 
Cc1ccc(S(=O)(=O)N(CC(C)C)[C@@H](CCCCNC(=O)N[C@H]2CCc3ccccc32)C(=O)O)cc1 [Example 25, (15,1'S) Nα-isobutyl-Nα-(4-methylbenzenesulfonyl)-N∈-(indanyl-1'-aminocarbonyl)-S-lysine] | > 300 nM | 
Cc1ccc(S(=O)(=O)N(CC(C)C)[C@H](CCCCNC(=O)N[C@H]2CCc3ccccc32)C(=O)O)cc1 [Example 26, (1R,1'S) Nα-isobutyl-Nα-(4-methylbenzenesulfonyl)-N∈-(indanyl-1'-aminocarbonyl)-R-lysine] | > 300 nM | 
Cc1ccc(S(=O)(=O)N(CC(C)C)[C@H](CCCCNC(=O)N[C@@H]2CCc3ccccc32)C(=O)O)cc1 [Example 27, (1R,1'R) Nα-isobutyl-Nα-(4-methylbenzenesulfonyl)-N∈-(indanyl-1'-aminocarbonyl)-R-lysine] |  | Ki: > 300 nM
Cc1ccc(S(=O)(=O)N(CC(C)C)[C@@H](CCCCNC(=O)N(CCc2ccccc2)Cc2ccccc2)C(=O)O)cc1 [Example 31, Nα-isobutyl-Nα-(4-methylbenzenesulfonyl)-N∈-[(N'-benzyl-N'-phenethyl)aminocarbonyl]-L-lysine] | > 300 nM | 
Cc1ccc(S(=O)(=O)N(CC(C)C)[C@@H](CCCCNC(=O)N(CC(C)C)CC(C)C)C(=O)O)cc1 [Example 35, Nα-isobutyl-Nα-(4-methylbenzenesulfonyl)-N∈-(N',N'-diisobutylaminocarbonyl)-L-lysine] | > 300 nM | 
Cc1ccc(S(=O)(=O)N(CC(C)C)[C@H](CO)CCCCNC(=O)N(Cc2ccncc2)Cc2ccncc2)cc1 [Example 46, (2S) 2-N-isobutyl-2-N-(4-methylbenzenesulfonyl)-6-N-[N',N'-di-(4-picolyl)aminocarbonyl]-2,6-diaminohexanol] | > 300 nM | 
CC(C)CN([C@H](CO)CCCCNC(=O)N(Cc1ccncc1)Cc1ccncc1)S(=O)(=O)c1ccc(N)cc1 [Example 51, (2S) 2-N-(4-aminobenzenesulfonyl)-2-N-isobutyl-6-N [N',N'-di-(4-picolyl)aminocarbonyl]-2,6-diaminohexanol] | > 300 nM | 
Cc1ccc(S(=O)(=O)N(CC(C)C)[C@@H](CCCCNC(=O)N(Cc2ccccc2)Cc2cccc(N)c2)C(=O)O)cc1 [Example 58, Nα-isobutyl-Nα-(4-methylbenzenesulfonyl)-N∈-[N'-(3-aminobenzyl)-N'-benzylaminocarbonyl]-L-lysine] | > 300 nM | 
CC(C)CN([C@H](CO)CCCCNC(=O)N(Cc1cccnc1)Cc1cccc(F)c1)S(=O)(=O)c1ccc(N)cc1 [Example 72, (2S) 2-N-(4-aminobenzenesulfonyl)-2-N-isobutyl-6-N-[N'-(3-fluorobenzyl)-N'-(3-picolyl)aminocarbonyl]-2,6-diaminohexanol] | > 300 nM | 
CC(C)CN([C@H](CO)CCCCNC(=O)N(Cc1cccnc1)Cc1ccccc1F)S(=O)(=O)c1ccc(N)cc1 [Example 73, (2S) 2-N-(4-aminobenzenesulfonyl)-2-N-isobutyl-6-N-[N'-(2-fluorobenzyl)-N'-(3-picolyl)aminocarbonyl]-2,6-diaminohexanol] | > 300 nM | 
CC(C)CN([C@H](CO)CCCCNC(=O)N(Cc1ccccc1)Cc1ccsc1)S(=O)(=O)c1ccc(N)cc1 [Example 76, (2S) 2-N-(4-aminobenzenesulfonyl)-2-N-isobutyl-6-N-[N'-benzyl-N'-(3-thiophenemethyl)aminocarbonyl]-2,6-diaminohexanol] | 11 nM | 
COc1ccc(CNC(=O)NCCCC[C@@H](CO)N(CC(C)C)S(=O)(=O)c2ccc(N)cc2)cc1 [Example 77, (2S) 2-N-(4-aminobenzenesulfonyl)-2-N-isobutyl-6-N-(N'-4-methoxybenzylaminocarbonyl)-2,6-diaminohexanol] | > 300 nM | 
COc1cccc(OC)c1CNC(=O)NCCCC[C@@H](CO)N(CC(C)C)S(=O)(=O)c1ccc(N)cc1 [Example 78, (2S) 2-N-(4-aminobenzenesulfonyl)-2-N-isobutyl-6-N-(N'-2,6-dimethoxybenzylaminocarbonyl)-2,6-diaminohexanol] | > 300 nM | 
COc1ccc(CNC(=O)NCCCC[C@@H](CO)N(CC(C)C)S(=O)(=O)c2ccc(N)cc2)c(OC)c1 [Example 79, (2S) 2-N-(4-aminobenzenesulfonyl)-2-N-isobutyl-6-N-(N'-2,4-dimethoxybenzylaminocarbonyl)-2,6-diaminohexanol] | > 300 nM | 
COc1cc(CNC(=O)NCCCC[C@@H](CO)N(CC(C)C)S(=O)(=O)c2ccc(N)cc2)cc(OC)c1 [Example 80, (2S) 2-N-(4-aminobenzenesulfonyl)-2-N-isobutyl-6-N-(N'-3,5-dimethoxybenzylaminocarbonyl)-2,6-diaminohexanol] | > 300 nM | 
